This note sets out measurements from patent publication US10005809B2, “Bio-active antioxidants from plant foods for nutraceutical product development” (priority 2013, dated 2018).

“And” between values parts separate entries of the source, which are not always exact repeats. Equal values may be shown once. Where a name gives a salt, the structure may show the parent alone.

The nature of experiment [1]: Trolox Equivalents Antioxidant Capacity (TEAC) assay. The format is biochemical. Particulars: for antioxidant activity (in words): TEAC measurements; for TEAC (Trolox equivalent antioxidant capacity) ± SEM: compounds 10-1000 μM, ABTS 0.5 mM, 734 nm, 6 min, ratio of slopes, no unit, n = 3. The procedure:
Trolox Equivalents Antioxidant Capacity (TEAC) Assay of Compounds (1-11)
Pure compounds and standards (conc. Range 10-1000 μM) were reacted with the fixed concentration of ABTS (0.5 mM) according to the reported method. The decrease in absorbance at 734 nm was recorded 6 min after the addition of pro-formed ABTS radical solution. Standards including Trolox, quercetin, kaempferol and ascorbic acid were used for the comparison of structure-activity relationship with the isolated compounds. The calculation of TEAC values was obtained by plotting the graphs between various concentrations of compounds and percent radical scavenging activity. Slope (m) was then calculated by using the linear regression (y=mx+c) of the plotted curve. Ratio of the value of slope of Trolox with that of isolated compounds was calculated to get TEAC value as follows; TEACCompound=Slope of Trolox/Slope of compound (3)
The TEAC assay was used to assess the power of reduction of total amount of ABTS^•+ radicals formed during the reaction by bioactive metaboilite. The ABTS is intensely colored and when it reacts with antioxidant the color disappeared. […] In present procedure, the ratio of the slope of concentrations of standard and test compound is taken, therefore TEAC is considered as relative value with no unit. Trolox used as standard antioxidant with TEAC value as 1.

The nature of experiment [2]: Liver function test (LFT) and lipid profile of serum after oral extract feeding. The experiment is classed as in vivo, Male Wistar rats. The following applies: rat serum after two weeks oral feeding; mean ± SEM, n = 6. An excerpt:
Rats were housed in polycarbonate cages, containing hardwood chip bedding. A standard pallet diet and water was made available ad-libitum. A 12 hr light/dark cycle was maintained throughout tbe study. After 14 days of acclimatization, the rats were randomized, and divided to 6 animals in each group: control, test, and positive control (Trolox). Oral doses of extracts were given after every alternate day and their physical status and weight changes were monitored daily. Control group has received an equal volume of normal saline for the same period of time. The experiment was terminated after two weeks of feeding. Under mild anesthetic conditions, blood was drawn via heart puncture. Blood was collected in clot activator plastic tubes, and allowed to clot for 30-40 minutes. Serum was separated by centrifugation and then stored at -20° C. till antioxidant status and other biochemical analysis were carried out. LPT and Lipid Profile The diagnostic facilities of […]), University of Karachi, were used for the biochemical analysis of serum samples. Lipid profile includes cholesterol, triglycerides, high density lipoproteins (HDL), low density lipoproteins (LDL), and LPT including bilirubin (total and direct), enzymes such as alanine aminotransferase (ALT), alkaline phosphatase (ALP), and gamma […] (GGT), were measured. These assays were performed by fully automated chemistry analyzer (Hitachi 902, Roche Diagnostics, Japan) with standardized kits, calibrators, and controls. Total lipid was estimated manually by calorimetric method of phosphovanilline on a photometer (Clinicon 4010, Boehringer […], Germany).

For 1,5-dimethyl citrate [compound 10], in experiment [1], the “antioxidant activity (in words)” value is listed as “moderate to low antioxidant activity” and the “TEAC (Trolox equivalent antioxidant capacity) ± SEM” value is 0.67±0.31.
`O=C1O[C@H]([C@@H](O)CO)C(O)=C1O` [Ascorbic acid, reference compound]: the “TEAC (Trolox equivalent antioxidant capacity) ± SEM” value in experiment [1] is listed as 1.14 ± 0.29.
Take `O=c1c(O)c(-c2ccc(O)cc2)oc2cc(O)cc(O)c12` [Kaempferol, reference compound]: the “TEAC (Trolox equivalent antioxidant capacity) ± SEM” value in experiment [1] turned out to be 0.97 ± 0.27; in experiment [1] (listed as keampferol), 0.97.
For `O=c1c(O)c(-c2ccc(O)c(O)c2)oc2cc(O)cc(O)c12` [Quercetin, reference compound], the results for the “TEAC (Trolox equivalent antioxidant capacity) ± SEM” value in experiment [1] and in experiment [1] (listed as quercetin) were 1.07 ± 0.23 and 1.07±0.23, respectively.
Take `Cc1c(C)c2c(c(C)c1O)CCC(C)(C(=O)O)O2` (centres unmarked) [Trolox, 6-hydroxy-2,5,7,8-tetramethylchroman-2-carboxylic acid]: in experiment [1], the “TEAC (Trolox equivalent antioxidant capacity) ± SEM” value worked out at 1. Moreover, in experiment [2], the ALP is reported as 212.54 ± 24.51 U/L, the ALT/SGPT is 45.5 ± 5.49 U/L, the Chol is 56.75 ± 2.07 mg/dL and the “Direct Bilirubin” value amounted to 0.085 ± 0.007 mg/dL. Moreover, in experiment [2], the GGT is recorded as 4.25 ± 0.74 U/L, the HDL-c is listed as 55 ± 1.97 mg/dL, the “Indirect Bilirubin” value was determined as 0.43 ± 0.03 mg/dL and the LDL-c was 14.25 ± 0.96 mg/dL. In experiment [2], the TAG was 40 ± 1.54 mg/dL, the “Total Bilirubin” value was found to be 0.51 ± 0.02 mg/dL, the “Total Lipid” value is 260 ± 5 mg/dL and the VLDL is 8.5 ± 0.25 mg/dL.
Consider `COc1cc(-c2oc3cc(O)cc(O[C@@H]4O[C@H](COC(=O)CC(C)(O)CC(=O)O)[C@@H](O)[C@H](O)[C@H]4O)c3c(=O)c2O)ccc1O` (stereo partly drawn) [compound 1, isorhamnetol 5-O-[6″-(3-hydroxy-3-methyl glutarate)] β-D-glucoside], for which the “TEAC (Trolox equivalent antioxidant capacity) ± SEM” value in experiment [1] is given as 0.88 ± 0.21.
On the same count and under the same terms, next, `C[C@H]1O[C@@H](Oc2c(-c3ccc(O)cc3)oc3cc(O)cc(O)c3c2=O)[C@@H](O)[C@@H](O)[C@@H]1O` [compound 3, kaempferol 3-O-β-D-rhamnoside]: 0.91 ± 0.21; `O=c1c(O[C@@H]2O[C@H](CO)[C@@H](O)[C@H](O)[C@H]2O)c(-c2ccc(O)c(O)c2)oc2cc(O)cc(O)c12` [compound 4, quercetin 3-O-β-D-glucoside]: 0.82±0.23 and 0.82 ± 0.32.
Still for that read-out and setting: next, `C[C@H]1O[C@@H](Oc2c(-c3ccc(O)c(O)c3)oc3cc(O)cc(O)c3c2=O)[C@@H](O)[C@@H](O)[C@@H]1O` [compound 5, quercetin 3-O-β-D-rhamnoside]: 0.82 ± 0.23; `O=C(/C=C/c1ccc(O)cc1)O[C@H]1C(Oc2c(-c3ccc(O)c(O)c3)oc3cc(O)cc(O)c3c2=O)O[C@H](CO)[C@@H](O)[C@@H]1O` (some centres unmarked) [compound 6, quercetin 3-O-(2-p-coumaroylglucoside)]: 0.36 ± 0.19.
Same read-out and setting: next, `O=Cc1ccc(CO)o1` [compound 8, 5-hydroxymethylfurfural]: 1.05±0.24.
On to `O=C(O)c1ccc(O)c(O)c1` [compound 9, 3,4-dihydroxybenzoic acid], for which the “TEAC (Trolox equivalent antioxidant capacity) ± SEM” value in experiment [1] is given as 0.95 ± 0.01.
For the molecule `COC(=O)CC(O)(CC(=O)OC)C(=O)OC` [compound 11, trimethyl citrate], in experiment [1], the “antioxidant activity (in words)” value is “moderate to low antioxidant activity” and the “TEAC (Trolox equivalent antioxidant capacity) ± SEM” value is recorded as 0.58±0.12.
On to “kaempferol 3-O-β-D-glucoside [compound 2]”, for which the “TEAC (Trolox equivalent antioxidant capacity) ± SEM” value in experiment [1] stood at 0.80 ± 0.31.
In the case of myricetin 3-O-β-D-xyloside [compound 7], the “TEAC (Trolox equivalent antioxidant capacity) ± SEM” value in experiment [1] is reported as 0.92 ± 0.35; in experiment [1] (listed as myricetin), 0.92±0.35.
